# According to patent US20050245498A1, “Sterically-awkward beta-lactamase inhibitors” (priority 2002, published 2005):
# Like-named read-outs stand apart in the source and are kept apart here.
# Legend:
# [1] = molecular target: T1, AmpC β-lactamase (Escherichia coli, UniProt P00811); experiment: biochemical; set-up: made in house; conditions: for IC50 compared to cefotaxime (fold lower): relative to cefotaxime IC50
# [2] = system: E. coli not expressing AmpC β-lactamase; experiment: microbe, parasite or virus in culture; format: cell-based; conditions: for Minimum inhibitory concentration (MIC): E. coli not expressing AmpC β-lactamase, Luria Broth, about 5×10^5 CFU/mL
# Procedure: (§1) Microbiology. Serial dilution assays in ligand culture were performed to examine the efficacy of these awkward β-lactams against clinically relevant pathogens grown in liquid culture (Table 3). The compounds were dissolved in KPi or tris hydroxymethyl aminomethane hydrochloride to a concentration of 20-50 mM, and serial dilutions were performed into Luria Broth (Difco, Detroit Mich.). Each broth solution was then inoculated with bacterial cells from an overnight culture that had been diluted to give an inoculum concentration of approximately 5×10^5 CFU/mL.
# [3] = system: E. coli expressing AmpC β-lactamase; experiment: microbe, parasite or virus in culture; format: cell-based; conditions: for Minimum inhibitory concentration (MIC): E. coli expressing AmpC β-lactamase, Luria Broth, about 5×10^5 CFU/mL
# Procedure: as §1
# [4] = molecular target: T1, AmpC β-lactamase; conditions: hydrolysis by AmpC, 1.75 nM enzyme, 50 mM Tris pH 7
# Procedure: Escherichia coli. AmpC β-lactamase was expressed and purified to homogeneity as previously described. The AmpC-catalyzed hydrolysis of the various β-lactams was monitored in an HP8453 UV/visible spectrophotometer. […] The reaction buffer used during the assays was 50 mM tris hydroxymethyl aminomethane hydrochloride (Fisher, Fair Lawn N.J.) at pH 7 in doubly-deionized water. kcat and KM values were determined at an enzyme concentration of 1.75 nM, with enzyme concentration determined, from more concentrated stocks, based on an ε280 of 0.098 μM^−1 cm^−1. […] Except for compounds synthesized for this study (ATMO-penicillin, ATMO-loracarbef), all compounds were used as supplied from the manufacturers without further purification.
# Enzymology. The AmpC-catalyzed hydrolysis of the β-lactams cefotaxime, ATMO-penicillin, and ATMO-loracarbef (FIG. 1B) were monitored by UV-vis spectroscopy (Table 1).
# [5] = system: CO/N=C(\C(=O)N[C@@H]1C(=O)N2[C@@H]1SC(C)(C)[C@@H]2C(=O)O)c1csc(N)n1; experiment: purified protein, by the assay type; conditions: other: hydrolysis by AmpC, 1.75 nM enzyme, 50 mM Tris pH 7
# [6] = system: CO/N=C(\C(=O)N[C@@H]1C(=O)N2C(C(=O)O)=C(COC(C)=O)CS[C@H]12)c1csc(N)n1; experiment: purified protein, by the assay type; conditions: other: hydrolysis by AmpC, 1.75 nM enzyme, 50 mM Tris pH 7
# [7] = system: CC(=O)OCC1=C(C(=O)O)N2C(=O)[C@@H](NC(=O)Cc3cccs3)[C@H]2SC1; experiment: purified protein, by the assay type; conditions: other: hydrolysis by AmpC, 1.75 nM enzyme, 50 mM Tris pH 7
# [8] = Escherichia coli, read-out: Minimum inhibitory concentration (MIC)
# T1 sequence (P00811 20-377): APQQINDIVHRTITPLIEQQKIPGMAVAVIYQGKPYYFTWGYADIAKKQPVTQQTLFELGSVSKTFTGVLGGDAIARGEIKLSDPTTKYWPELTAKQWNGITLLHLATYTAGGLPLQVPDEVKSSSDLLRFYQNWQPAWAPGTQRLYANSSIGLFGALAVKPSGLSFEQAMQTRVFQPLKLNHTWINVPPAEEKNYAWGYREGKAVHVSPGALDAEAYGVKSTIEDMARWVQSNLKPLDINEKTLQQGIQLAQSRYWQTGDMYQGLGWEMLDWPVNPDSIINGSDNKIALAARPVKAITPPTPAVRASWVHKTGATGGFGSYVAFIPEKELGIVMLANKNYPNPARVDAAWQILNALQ
molecule,measurement,setting,value
"CON=C(C(=O)NC1C(=O)N2C(C(=O)O)=C(Cl)CCC12)c1csc(N)n1 (centres unmarked) [ATMO-loracarbef, 7-ATMO-3-chloro-carbacephem]",IC50,"[1]; against 200 μM nitrocefin, read-out: IC50",0.08 µM
same,IC50 compared to cefotaxime (fold lower),[1],11 fold
same,Minimum inhibitory concentration (MIC),[2],¼
same,Minimum inhibitory concentration (MIC),[3],1 µg/mL
same,Kcat,[4],0.0323 s⁻¹
"CO/N=C(\C(=O)N[C@@H]1C(=O)N2C(C(=O)O)=C(COC(C)=O)CS[C@H]12)c1csc(N)n1 [Cefotaxime, cefotaxime]",IC50,[1],0.8 µM
same,Minimum inhibitory concentration (MIC),[2],1/128
same,Minimum inhibitory concentration (MIC),[3],1/32
"CC1(C)S[C@@H]2[C@H](NC(=O)Cc3ccccc3)C(=O)N2[C@H]1C(=O)O [Penicillin G, penicillin G]",Kcat,[4],133.1 s⁻¹
same,Km,[4],5.05 µM
same,Kcat,[4]; listed as penicillin G,133 s⁻¹
"CC(=O)OCC1=C(C(=O)O)N2C(=O)[C@@H](NC(=O)Cc3cccs3)[C@H]2SC1 [Cephalothin, cephalothin]",MIC,[2]; [8],8 mg/L
same,MIC,[3]; [8],64 mg/L
same,Kcat,[4],263 s⁻¹
CO/N=C(\C(=O)N[C@@H]1C(=O)N2[C@@H]1SC(C)(C)[C@@H]2C(=O)O)c1csc(N)n1 [ATMO-penicillin],IC50,[1],0.9 µM
same,IC50 compared to cefotaxime (fold lower),[1],comparable to cefotaxime
same,Kcat,[4],< 0.0045 s⁻¹
"N[C@@H](C(=O)N[C@@H]1C(=O)N2C(C(=O)O)=C(Cl)CC[C@H]12)c1ccccc1 [Loracarbef, loracarbef]",Minimum inhibitory concentration (MIC),[2],4 µg/mL
same,Minimum inhibitory concentration (MIC),[3],8 µg/mL
same,Kcat,[4],118.3 s⁻¹
same,Km,[4],23.7 µM
same,Kcat,[4]; listed as loracarbef,118 s⁻¹
AmpC β-lactamase (Escherichia coli K-12),kcat,[5],< 0.0045 s⁻¹
same,kcat,[6],0.0448 s⁻¹
same,Km,[7],31.3 µM
same,kcat,[7],262 s⁻¹
